Experimental data: ChEMBL document CHEMBL4842340, “Development of Cagrilintide, a Long-Acting Amylin Analogue” (J Med Chem, 2021)
Values after ≈ are worked out from the molar mass of the structure shown. *1 amine or outer side, *2 acyl side, *3 side chain or, on linkers, in order; H or OH if unused. Where a SMILES comes first, the peptide text is derived from it. Bridges are numbered along the chain shown (N, C = ends). The star is where a group is joined. C20 diacid = O=C(O)CCCCCCCCCCCCCCCCCCC(=O)*; γGlu = O=C(O)[C@H](CCC(=O)[*:2])N[*:1]

Experiments:
[1] = Agonist activity at human AMY3R (CT+RAMP3) expressed in Hollex1 cells incubated for 3 hrs by luminescence assay; assay type: cell-based; settings: Hollex1, 3 h
[2] = Agonist activity at human calcitonin receptor expressed in BHK570 cells assessed as increase in intracellular cAMP concentration incubated for 3 hrs in absence of albumin by CRE luciferase reporter gene assay; assay type: cell-based; settings: BHK570, 3 h
Homo sapiens [3] = organism: Homo sapiens; assay: Ratio of EC50 for human calcitonin receptor expressed in BHK570 cells to EC50 for human AMY3R (CT+RAMP3) expressed in Hollex1 cells; assay type: cell-based
[4] = Agonist activity at rat AMY3R (CT+RAMP3) expressed in tk-ts13 cells assessed as increase in intracellular cAMP level incuabted for 25 mins by CRE luciferase reporter gene assay; assay type: cell-based; settings: tk-ts13, 25 min
[5] = Agonist activity at rat calcitonin receptor expressed in BHK-13 cells assessed as increase in intracellular cAMP concentration incubated for 25 mins by CRE luciferase reporter gene assay; assay type: cell-based; settings: BHK-13, 25 min
Rattus norvegicus [6] = organism: Rattus norvegicus; assay: Ratio of EC50 for rat calcitonin receptor expressed in BHK-13 cells to EC50 for rat AMY3R (CT+RAMP3) expressed in tk-ts13 cells; assay type: cell-based
[7] = Displacement of [125I]-amylin from human AMY3R (CTR+RAMP3) expressed in BHK-13 cells measured after 120 mins by scintillation proximity assay; assay type: cell-based
[8] = Displacement of [125I]-calcitonin from human calcitonin receptor expressed in tk-ts 13 cells measured after 120 mins by scintillation proximity assay; assay type: cell-based; settings: tk-ts13
Homo sapiens [9] = organism: Homo sapiens; assay: Ratio of IC50 for displacement of [125I]-calcitonin from human calcitonin receptor expressed in tk-ts 13 cells to IC50 for displacement of [125I]-amylin from human AMY3R (CTR+RAMP3) expressed in BHK-13 cells; assay type: cell-based
[10] = Displacement of [125I]-amylin from rat AMY3R (CTR+RAMP3) expressed in BHK-13 cells measured after 120 mins by scintillation proximity assay; assay type: cell-based
[11] = Displacement of [125I]-calcitonin from rat calcitonin receptor expressed in tk-ts 13 cells measured after 120 mins by scintillation proximity assay; assay type: cell-based; settings: tk-ts13
Rattus norvegicus [12] = organism: Rattus norvegicus; assay: Ratio of IC50 for displacement of [125I]-calcitonin from rat calcitonin receptor expressed in tk-ts 13 cells to IC50 for displacement of [125I]-amylin from rat AMY3R (CTR+RAMP3) expressed in BHK-13 cells; assay type: cell-based
[13] = Solubility of the compound in lactate at pH 3 by UPLC analysis; assay type: physicochemical; settings: lactate buffer
[14] = Solubility of the compound in lactate at pH 4 by UPLC analysis; assay type: physicochemical; settings: lactate buffer
[15] = Solubility of the compound in lactate at pH 5 by UPLC analysis; assay type: physicochemical; settings: lactate buffer
[16] = Solubility of the compound in bis-tris propane at pH 6 by UPLC analysis; assay type: physicochemical; settings: bis-tris propane buffer
[17] = Solubility of the compound in bis-tris propane at pH 7 by UPLC analysis; assay type: physicochemical; settings: bis-tris propane buffer
[18] = Solubility of the compound in bis-tris propane at pH 7.5 by UPLC analysis; assay type: physicochemical; settings: bis-tris propane buffer
Insulin (Homo sapiens) [19] = target: Insulin (Homo sapiens) (UniProt P01308); assay: Effect on insulin (unknown origin) amyloid fibril formation assessed as lag time in glycyl-glycine buffer at pH 4 measured after 45 hrs by thioflavin-T fluorescence assay
Insulin (Homo sapiens) [20] = target: Insulin (Homo sapiens) (UniProt P01308); assay: Effect on insulin (unknown origin) amyloid fibril formation assessed as peptide recovery in glycyl-glycine buffer at pH 4 measured after 45 hrs by thioflavin-T fluorescence assay relative to control; set-up: concentration or dose not given beside the values
Insulin (Homo sapiens) [21] = target: Insulin (Homo sapiens) (UniProt P01308); assay: Effect on insulin (unknown origin) amyloid fibril formation assessed as lag time in HEPES buffer at pH 7.5 measured after 45 hrs by thioflavin-T fluorescence assay
Insulin (Homo sapiens) [22] = target: Insulin (Homo sapiens) (UniProt P01308); assay: Effect on insulin (unknown origin) amyloid fibril formation assessed as peptide recovery in HEPES buffer at pH 7.5 measured after 45 hrs by thioflavin-T fluorescence assay relative to control
Rattus norvegicus [23] = assay: Reduction in food intake in Sprague-Dawley rat at 30 nmol/kg, sc administered as single dose measured upto 24 hrs relative to control; assay type: functional; set-up: scale not given: the % may be the effect or the level left; settings: time hrs <=24
Rattus norvegicus [24] = assay: Reduction in food intake in Sprague-Dawley rat at 30 nmol/kg, sc administered as single dose measured after 24 to 48 hrs relative to control; assay type: functional; set-up: scale not given: the % may be the effect or the level left; settings: time 24-48 hrs
Rattus norvegicus [25] = assay: Reduction in food intake in Sprague-Dawley rat at 3 nmol/kg, sc administered as single dose measured upto 24 hrs relative to control; assay type: functional; set-up: scale not given: the % may be the effect or the level left; settings: time hrs <=24
Rattus norvegicus [26] = assay: Reduction in food intake in Sprague-Dawley rat at 3 nmol/kg, sc administered as single dose measured after 24 to 48 hrs relative to control; assay type: functional; set-up: scale not given: the % may be the effect or the level left; settings: time 24-48 hrs
[27] = Solubility of the compound in bis-tris propane at pH 6.5 by UPLC analysis; assay type: physicochemical; settings: bis-tris propane buffer
[28] = Solubility of the compound in bis-tris propane at pH 8 by UPLC analysis; assay type: physicochemical; settings: bis-tris propane buffer

Sequence of Insulin (Homo sapiens) (P01308 whole entry): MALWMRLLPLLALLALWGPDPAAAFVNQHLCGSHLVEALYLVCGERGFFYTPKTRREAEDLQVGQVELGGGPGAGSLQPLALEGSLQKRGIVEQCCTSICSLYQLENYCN

SMILES	EC50 [1] [nM]	EC50 [2] [nM]	Ratio EC50 (Homo sapiens [3])	EC50 [4] [nM]	EC50 [5] [nM]	IC50 [7] [nM]	IC50 [8] [nM]	Ratio IC50 (Homo sapiens [9])	IC50 [10] [nM]	IC50 [11] [nM]	Ratio IC50 (Rattus norvegicus [12])	solubility [13] [µM]	solubility [14] [µM]	solubility [15] [µM]	solubility [16] [µM]	solubility [17] [µM]	solubility [18] [µM]	TIME (Insulin (Homo sapiens) [19]) [h]	Activity (Insulin (Homo sapiens) [20]) [%]	TIME (Insulin (Homo sapiens) [21]) [h]	other results
CC[C@H](C)[C@H](NC(=O)[C@@H]1CCCN1C(=O)CNC(=O)[C@H](Cc1ccccc1)NC(=O)[C@H](CC(N)=O)NC(=O)[C@H](CC(N)=O)NC(=O)[C@H](CO)NC(=O)[C@H](CO)NC(=O)[C@H](Cc1c[nH]cn1)NC(=O)[C@H](Cc1cnc[nH]1)NC(=O)[C@H](CC(C)C)NC(=O)[C@H](Cc1ccccc1)NC(=O)[C@H](CCC(=O)O)NC(=O)[C@H](C)NC(=O)[C@H](CC(C)C)NC(=O)[C@H](CCCNC(=N)N)NC(=O)[C@H](CCC(N)=O)NC(=O)[C@@H](NC(=O)[C@H](C)NC(=O)[C@@H]1CSSC[C@H](NC(=O)[C@H](CCCCN)NC(=O)CC[C@H](NC(=O)CCCCCCCCCCCCCCCCCCC(=O)O)C(=O)O)C(=O)N[C@@H](CC(N)=O)C(=O)N[C@@H]([C@@H](C)O)C(=O)N[C@@H](C)C(=O)N[C@@H]([C@@H](C)O)C(=O)N1)[C@@H](C)O)C(=O)N[C@@H](CC(C)C)C(=O)N1CCC[C@H]1C(=O)N1CCC[C@H]1C(=O)N[C@H](C(=O)N[C@@H](CC(N)=O)C(=O)N[C@H](C(=O)NCC(=O)N[C@@H](CO)C(=O)N[C@@H](Cc1cnc[nH]1)C(=O)N[C@H](C(=O)N[C@@H](Cc1ccc(O)cc1)C(N)=O)[C@@H](C)O)C(C)C)[C@@H](C)O ({C20 diacid-γGlu}-KCNTATCATQRLAEFLHHSSNNFGPILPPTNVGSHTY-NH2; disulfide 2-7)	0.145	0.147	1	0.246	0.673	1.07	1.12	1	0.194	0.666	3	200 (≈ 896 µg/mL)	200 (≈ 896 µg/mL)	200 (≈ 896 µg/mL)	200 (≈ 896 µg/mL)	103 (≈ 461 µg/mL)	109 (≈ 488 µg/mL)	37	91	1	Ratio EC50 (Rattus norvegicus [6]): 3; Activity (Insulin (Homo sapiens) [22]): 29%; Activity (Rattus norvegicus [23]): 88%; Activity (Rattus norvegicus [24]): 90%; Activity (Rattus norvegicus [25]): 58%; Activity (Rattus norvegicus [26]): 40%
CC[C@H](C)[C@H](NC(=O)[C@@H]1CCCN1C(=O)CNC(=O)[C@H](Cc1ccccc1)NC(=O)[C@H](CC(N)=O)NC(=O)[C@H](CC(N)=O)NC(=O)[C@H](CO)NC(=O)[C@H](CO)NC(=O)[C@H](Cc1c[nH]cn1)NC(=O)[C@H](Cc1cnc[nH]1)NC(=O)[C@H](CC(C)C)NC(=O)[C@H](Cc1ccccc1)NC(=O)[C@H](CCC(=O)O)NC(=O)[C@H](C)NC(=O)[C@H](CC(C)C)NC(=O)[C@H](CCCNC(=N)N)NC(=O)[C@H](CCC(N)=O)NC(=O)[C@@H](NC(=O)[C@H](C)NC(=O)[C@@H]1CSSC[C@H](NC(=O)[C@H](CCCCN)NC(=O)CC[C@H](NC(=O)CCCCCCCCCCCCCCCCCCC(=O)O)C(=O)O)C(=O)N[C@@H](CC(N)=O)C(=O)N[C@@H]([C@@H](C)O)C(=O)N[C@@H](C)C(=O)N[C@@H]([C@@H](C)O)C(=O)N1)[C@@H](C)O)C(=O)N[C@@H](CC(C)C)C(=O)N1CCC[C@H]1C(=O)N1CCC[C@H]1C(=O)N[C@H](C(=O)N[C@@H](CC(N)=O)C(=O)N[C@H](C(=O)NCC(=O)N[C@@H](CO)C(=O)N[C@@H](CC(N)=O)C(=O)N[C@H](C(=O)N1CCC[C@H]1C(N)=O)[C@@H](C)O)C(C)C)[C@@H](C)O ({C20 diacid-γGlu}-KCNTATCATQRLAEFLHHSSNNFGPILPPTNVGSNTP-NH2; disulfide 2-7)	0.061	0.052	1	0.158	0.076	0.186	0.115	1	0.027	0.018	1	200 (≈ 878 µg/mL)	200 (≈ 878 µg/mL)	200 (≈ 878 µg/mL)	200 (≈ 878 µg/mL)	200 (≈ 878 µg/mL)	200 (≈ 878 µg/mL)	45	92	11	solubility [27]: 200 µM (≈ 878 µg/mL); solubility [28]: 200 µM (≈ 878 µg/mL); Activity (Insulin (Homo sapiens) [22]): 19%; Activity (Rattus norvegicus [25]): 62%; Activity (Rattus norvegicus [26]): 74%
